Assay results: patent publication US11814680B2, “Biomarkers for detecting senescent cells” (Universität für Bodenkultur Wien, priority 2017, dated 2023)
Entries after “also recorded” stand apart in the source; their conditions may differ. Marks after values point to notes of the source that are not given here.

Legend:
[1] = tested on: p16-3MR mice; assay: Next generation sequencing of circulating miRNAs in serum after induction (dox) and removal (GCV) of senescent cells; type: in vivo, mouse; details: for log fold change / avg TPM dox: serum miRNA; for log fold change: dox vs pbs, p16-3MR mice; for avg TPM dox: dox-treated p16-3MR mice
Experimental: p16-3MR (Demaria et al, 2014, Developmental Cell 31:722-733) mice were bred in house and maintained in the AALAC-accredited Buck Institute for Research on Aging (Novato, Calif.) animal facility. 10 to 12-week-old p16-3MR male mice were used for experiments. Mice were divided in 4 groups and each group consisted of 3 animals. In group A, control mice were injected with PBS. In group B, mice were treated with Ganciclovir (GCV) (Sigma-Aldrich) dissolved in PBS for 5 consecutive days. In group C, mice were treated with one dose of Doxorubicine hydrochloride (Sigma-Aldrich) dissolved in PBS. In group D, mice were first treated with Doxorubicine and then treated 10 days later with GCV. Mice were intraperitoneally injected with one dose of 10 mg/kg of Doxorubicine hydrochloride, and GCV was administered daily by intraperitoneal injections for 5 consecutive days at concentration of 25 mg/kg in PBS. 4 days after the last GCV dose, animals were euthanized with CO2 and blood was withdrawn immediately. Blood was then incubated for 30 min at room temperature and centrifuged at 3400×g for 10 min. Serum was carefully collected in a sterile tube without disturbing the cell pellet and stored at −80° C. for further experiments.
Total RNA extraction was performed from 200 μl of serum using the Qiagen miRNeasy™ extraction kit (Qiagen, Germany). RNA yield was quality checked for homogenous extraction efficiency and hemolysis on the basis qPCR amplification of spiked-in as well as hemolysis-responsive RNAs (Blondal et al). In total 2 μl total RNA were used for library preparation using the CleanTag library preparation protocol (Trilink Biotechnologies, USA), which uses chemically modified adapters to prevent adapter self-ligation. Library quality and yield was controlled using Bioanalyzer DNA-1000 chips. Due to the high purity, libraries were not purified prior to sequencing on an ILLUMINA™ NextSeq 500 sequencing system with 50 bp single-end reads.
Next-generation sequencing was performed at Exiqon (Denmark). Raw reads were quality filtered for a Q-score of 30 or higher. Adapter sequences were trimmed and the remaining reads were mapped against the mouse genome, miRBase, non-coding RNA databases and classified as either microRNAs, small RNAs, genome mapping RNAs or outmapped RNA sequences. Read counts were added for all microRNA isoforms (isomiRs) and normalized by dividing the microRNA read count by the total number of mapped reads and multiplying by 1 million (Tags Per Million). Tags per millions were used for data mining (PCA and hierarchical clustering) using the web-tool clustvis (Metsalu and Vilo 2015).
For differential expression analysis, the EdgeR statistical software package was used. For normalization, the trimmed mean of M-values method was used based on log-fold and absolute gene wise changes in expression levels between samples (TMM normalization). […] Additionally, the normalization step offsets under-sampling effects (due to highly expressed microRNAs dominating the read set) by identifying scaling factors that minimize log-fold changes between samples across the majority of microRNAs.
For exploratory data analysis we applied principal component analysis (PCA) to the dataset of 50 most variable microRNAs according to the coefficient of variation. The PCA plot clearly indicates an effect of […] (dox) treatment on circulating microRNA levels in p16-3MR mice compared to the PBS treated control animals (FIG. 2). […] Analysis of differentially circulating miRNAs was focused on changes between dox treated versus control (PBS) to identify those miRNAs that are modulated by induction of senescence, as well as dox-GCV vs dox, in order to identify miRNAs that change after removal of senescent cells. A p-value threshold of <0.05 without correction for multiple testing was used. […] GCV-treated animals are supposed to have a reduced number of senescent cells compared to PBS due to forced apoptosis. […]

[2] = tested on: p16-3MR mice; assay: ROC analysis of discriminatory power of circulating microRNAs; type: in vivo, mouse; details: serum, RT-qPCR, symbol after the number = significance; for ROC Analysis AUC Senescence: DOX vs PBS; for ROC Analysis AUC Senolytic Treatment: DOX/GCV vs DOX
Experimental: (§1) Statistical analysis was performed using Medcalc (version 18.2.1). Normal distribution was assessed using D'Agostino-Pearson test, where normality was accepted at p>0.05. One-way ANOVA together together with Student-Newman-Keuls test for all pairwise comparisons (post-hoc tests) was used to identify significant changes between groups (p<0.05). To assess the discriminatory power of individual microRNAs, receiver operating characteristic (ROC) analysis was applied. ROC curves were plotted using sensitivity (y-axis) and 1-specificity (x-axis) and the area under the ROC curve (AUC) was calculated. MicroRNAs with AUC-values of >0.7 were considered as good discriminators/biomarkers. MicroRNAs with AUC-values >0.8 were considered very good discriminators/biomarkers.
In order to assess the diagnostic power of circulating microRNAs for the exposure with senescence inducing substances (DOX) as well as the efficacy of senolytic treatment, ROC analysis was performed and the area-under-the-curve (AUC) was calculated. […] Table 23 below summarizes AUC values as well as 95% confidence intervals for 24 selected circulating microRNAs.

[3] = tested on: p16-3MR mice; assay: RT-qPCR verification of serum circulating microRNA changes, one-way ANOVA; type: in vivo, mouse; details: for change of serum level following senolytic treatment (DOX/GCV compared to DOX): p<0.05, in words; for One-way ANOVA Senolytic Treatment (DOX/GCV) / One-way ANOVA Senescence (DOX vs PBS): serum; for One-way ANOVA Senolytic Treatment (DOX/GCV): DOX/GCV compared to DOX; for One-way ANOVA Senescence (DOX vs PBS): n=8 per group, male and female mice
Experimental: p16-3MR (Demaria et al, 2014, Developmental Cell 31:722-733) mice were bred in house and maintained in the AALAC-accredited Buck Institute for Research on Aging (Novato, Calif.) animal facility. 10 to 12-week-old p16-3MR […] mice were used for experiments. Mice were divided in 4 groups and each group consisted of 8 animals, 5 female, and 3 male, respectively. In group A, control mice were injected with PBS. In group B, mice were treated with Ganciclovir (GCV) (Sigma-Aldrich) dissolved in PBS for 5 consecutive days. In group C, mice were treated with one dose of Doxorubicine hydrochloride (Sigma-Aldrich) dissolved in PBS. In group D, mice were first treated with Doxorubicine and then treated 10 days later with GCV. Mice were intraperitoneally injected with one dose of 10 mg/kg of Doxorubicine hydrochloride, and GCV was administered daily by intraperitoneal injections for 5 consecutive days at concentration of 25 mg/kg in PBS. 4 days after the last GCV dose, animals were euthanized with CO2 and blood was withdrawn immediately. Blood was then incubated for 30 min at room temperature and centrifuged at 3400×g for 10 min. Serum was carefully collected in a sterile tube without disturbing the cell pellet and stored at −80° C. for further experiments.
Total RNA extraction was performed from 200 μl of serum using the Qiagen miRNeasy extraction kit (Qiagen, Germany). RNA yield was quality checked for homogenous extraction efficiency and hemolysis on the basis qPCR amplification of spiked-in as well as hemolysis-responsive RNAs (Blondal et al). In total 2 μl total RNA were used for reverse transcription using the Exiqon Universal RT kit II (Exiqon, Denmark). The obtained cDNA samples were pre-diluted 1:40 and subsequently mixed with SYBR Green® Mix (Exiqon, Denmark) to achieve a 1:100 dilution. The mix was distributed to primer-coated 384-well plates containing dried primer pairs for 96 selected microRNA or quality control assays. QPCR amplification was performed on a Roche LightCycler 480 II, using the manufacturer's recommendation for annealing, extension and denaturation.
Raw Cq-values were computed using the 2nd derivative method. Melting curves were checked for peaks to ensure specificity of the amplification reactions. Cq-values were subsequently normalized using Spike-In controls as references, to reduce technical noise in the data.
as §1

[4] = tested on: p16-3MR mice; assay: Pearson correlation of serum miRNA levels to miR-34a-5p and miR-27a-3p; set-up: species or system mouse; details: for Pearson Correlcation coefficient miR44a-5p: correlation of serum level to miR44a-5p (so in the source); for Pearson Correlcation coefficient miR-27a-3p: correlation of serum level to miR-27a-3p
Source text: In order to extend these finding to potential additional miRNAs, we performed Pearson correlation to miR-34a-5p and miR-27a-3p, resulting in additional potential biomarkers (Table 18).

Compound	Pearson Correlcation coefficient miR44a-5p [4]	Pearson Correlcation coefficient miR-27a-3p [4]	log fold change ([1]; NGS)	avg TPM dox ([1]; NGS)	also measured
COc1cccc2c1C(=O)c1c(O)c3c(c(O)c1C2=O)C[C@@](O)(C(=O)CO)C[C@@H]3O[C@H]1C[C@H](N)[C@H](O)[C@H](C)O1.Cl [Doxorubicine hydrochloride, reference compound]	–	–	–	–	circulating miRNA levels upon induction of senescence ([1]; PCA of 50 most variable microRNAs, compared to PBS, in words): significantly changed
Nc1nc(O)c2ncn(COC(CO)CO)c2n1 [ganciclovir, Ganciclovir, reference compound]	–	–	–	–	serum miRNAs compared to PBS treated animals ([1]; GCV 25 mg/kg i.p. for 5 days, in words): consistent decrease
miR-24-3p: circulating microRNA biomarker, SEQ ID No. 21 (UGGCUCAGUUCAGCAGGAACAG; expressed or natural sequence; listed as Homo sapiens)	0.61	0.89	–	–	ROC Analysis AUC Senescence [2]: 0.609°; ROC Analysis AUC Senolytic Treatment [2]: 0.789*; change of serum level following senolytic treatment (DOX/GCV compared to DOX) [3]: significantly changed; One-way ANOVA Senolytic Treatment (DOX/GCV) [3]: * (significant p < 0.05); One-way ANOVA Senescence (DOX vs PBS) [3]: ○
miR-27a-3p: circulating microRNA biomarker, SEQ ID No. 5 (UUCACAGUGGCUAAGUUCCGC; expressed or natural sequence; listed as Homo sapiens)	–	–	1.08	16.50 TPM	ROC Analysis AUC Senescence [2]: 0.664°; ROC Analysis AUC Senolytic Treatment [2]: 0.719+; change of serum level following senolytic treatment (DOX/GCV compared to DOX) [3]: significantly changed; One-way ANOVA Senolytic Treatment (DOX/GCV) [3]: * (significant p < 0.05); One-way ANOVA Senescence (DOX vs PBS) [3]: ○; serum level after rescue with dox+GCV (removal of senescent cells) ([1]; NGS, in words): decreased; serum level in dox-treated animals compared to PBS controls ([1]; NGS, in words): higher; also recorded: increased
miR-151-5p: circulating microRNA biomarker, SEQ ID No. 17 (UCGAGGAGCUCACAGUCUAGU; expressed or natural sequence; listed as Homo sapiens)	0.73	0.37	–	–	ROC Analysis AUC Senescence [2]: 0.828*; ROC Analysis AUC Senolytic Treatment [2]: 0.609°; regulation in serum after exposure to DOX compared to PBS ([3]; independent of gender, in words): significantly (up- or down-regulated); One-way ANOVA Senolytic Treatment (DOX/GCV) [3]: ○; One-way ANOVA Senescence (DOX vs PBS) [3]: * (significant p < 0.05)
mmu-let-7f-5p: circulating microRNA, SEQ ID No. 2 (UGAGGUAGUAGAUUGUAUAGUU; expressed or natural sequence; listed as Homo sapiens)	–	–	−1.29	178.25 TPM	–
mmu-miR-143-3p: circulating microRNA, SEQ ID No. 4 (UGAGAUGAAGCACUGUAGCUC; expressed or natural sequence; listed as Homo sapiens)	–	–	−1.57	393.00 TPM	–
mmu-miR-144-5p: circulating microRNA, SEQ ID No. 7 (GGAUAUCAUCAUAUACUGUAAG; expressed or natural sequence; listed as Homo sapiens)	–	–	−1.06	34.50 TPM	–
mmu-miR-339-5p: circulating microRNA, SEQ ID No. 10 (UCCCUGUCCUCCAGGAGCUCACG; expressed or natural sequence; listed as Homo sapiens)	0.64	0.87	–	–	–
mmu-miR-652-3p: circulating microRNA, SEQ ID No. 13 (AAUGGCGCCACUAGGGUUGUG; expressed or natural sequence; listed as Homo sapiens)	0.77	0.66	–	–	–
mmu-miR-3058-3p: circulating microRNA, SEQ ID No. 8 (UUCCUGUCAGCCGUGGGUGCC; expressed or natural sequence; listed as Homo sapiens)	0.80	0.54	–	–	–
mmu-miR-6395: circulating microRNA, SEQ ID No. 12 (CUGGCCCUCUCUGCCCUGUUUA; expressed or natural sequence; listed as Homo sapiens)	0.61	0.81	–	–	–
